Data taken from US11839663B2, “Radiolabelled MGL pet ligands” (Janssen Pharmaceutica NV, priority 2019, dated 2023).

Key:
[1] = target: human MGL from HeLa cells (Homo sapiens (Human), UniProt Q99685); assay: MGL in vitro activity assay ([glycerol-1,3-3H]-oleyl glycerol cleavage); type: biochemical; conditions: 300 nM [Glycerol-1,3-3H]-oleyl glycerol, one hour incubation, endogenous MGL from HeLa cells
Method: The assay used to measure the in vitro activity of MGL is adapted from the assay used for another serine hydrolase (FAAH) described in Wilson et al., 2003 (A high-throughput-compatible assay for determining the activity of fatty acid amide hydrolase. Wilson S J, Lovenberg T W, Barbier A J. Anal Biochem. 2003 Jul. 15; 318(2):270-5.). The assay consists of combining endogenously expressed MGL from HeLa cells with test compounds, adding [glycerol-1,3-^3H]-oleyl glycerol, incubating for one hour, and then measuring the amount of cleaved [1,3-^3H]-glycerol that passes through an activated carbon filter. The amount of cleaved, tritiated glycerol passing through the carbon filter is proportional to the activity of the MGL enzyme in a particular well/test condition.
Standard conditions for this assay combine 300 nM [Glycerol-1,3-^3H]-oleyl glycerol with human MGL from HeLa cells and test compounds for one hour, after which the reaction is filtered through activated carbon and tritium is measured in the flow through. The test compound concentration in screening mode is 10 uM, while the highest compound concentration in IC50 assays is determined empirically. MGL is the predominant hydrolase in HeLa cells/cell homogenates.

[2] = target: MGL (Rattus norvegicus (Rat), UniProt Q8R431); assay: In vitro autoradiography (ARG) on frozen normal rat brain sections; type: binding; conditions: sagittal rat brain section 20 um, 400 uCi/ml in 50 mM Tris-HCl pH 7.4, 30 min at room temperature
Method: In vitro ARG using the compound of Example 3 was performed on a frozen normal rat brain sections (sagittal cut, thickness at 20 um). After taken out from freezer for 15 min, the rat brain section was added 250 ul of buffer solution (50 mM Tris-HCl pH=7.4) which contains the compound of Example 3 with the concentration of 400 uCi/ml. The brain section was incubated with the incubation buffer at room temperature for 30 min, was then washed with blank fresh buffer solution for 5 min, repeated 3 times. The brain section was air-dried, exposed to a phosphor screen in a cassette in dark environment for 18 hours. The screen was then scanned then Typhoon™ FLA 7000 Image Analyzer (GE) to generate the autoradiography of the compound of Example 3 on rat brain section (FIG. 2). […] The distribution pattern matches IHC staining pattern described below.
The IHC staining was performed on a frozen normal rat brain section (sagittal cut, thickness at 10 um) which is adjacent to the brain section used in ARG described above. After taken out from freezer for 15 min, the rat brain section was added 4% paraformaldehyde and fixed for 20 min at room temperature. The section was then washed with fresh phosphate buffer solution (PBS, 0.01 M, pH=7.4) for 5 min, repeated 3 times, followed by treatment of hydrogen peroxide solution (3% in PBS) at room temperature for 20 min. […]

Sequence of MGL (Q8R431 whole entry): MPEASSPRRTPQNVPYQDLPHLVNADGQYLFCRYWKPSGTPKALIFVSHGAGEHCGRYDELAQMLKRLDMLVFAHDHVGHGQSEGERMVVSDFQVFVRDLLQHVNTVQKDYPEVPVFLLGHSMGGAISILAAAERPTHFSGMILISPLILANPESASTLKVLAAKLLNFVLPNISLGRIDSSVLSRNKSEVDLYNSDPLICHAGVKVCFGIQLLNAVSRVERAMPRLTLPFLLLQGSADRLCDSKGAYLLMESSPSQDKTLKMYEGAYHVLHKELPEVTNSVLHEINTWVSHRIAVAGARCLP
Sequence of human MGL from HeLa cells (Q99685 whole entry): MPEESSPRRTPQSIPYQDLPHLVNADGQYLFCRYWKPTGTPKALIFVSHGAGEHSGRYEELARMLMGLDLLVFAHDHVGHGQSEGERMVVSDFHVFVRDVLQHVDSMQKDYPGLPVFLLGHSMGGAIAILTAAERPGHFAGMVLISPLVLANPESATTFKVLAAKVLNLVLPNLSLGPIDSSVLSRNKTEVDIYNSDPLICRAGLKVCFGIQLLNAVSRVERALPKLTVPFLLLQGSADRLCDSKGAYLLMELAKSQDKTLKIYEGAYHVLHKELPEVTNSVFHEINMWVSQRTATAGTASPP

IC50 [1] | SMILES | ARG signals (regional distribution) [2]
2.3 pM | C[C@H]1c2nn(C)c(-c3cc(F)cc(F)c3)c2CCN1C(=O)c1c(F)cccc1Cl [Example 1, (S)-(2-Chloro-6-fluorophenyl)(3-(3,5-difluorophenyl)-2,7-dimethyl-2,4,5,7-tetrahydro-6H-pyrazolo[3,4-c]pyridin-6-yl)methanone] | 
 | C[C@H]1c2nn(C)c(-c3cc(F)cc(F)c3)c2CCN1C(=O)c1c([18F])cccc1Cl [Example 3] | high in hippocampus, cortex, cerebellum and thalamus regions and low in brainstem
